Laboratory results taken from PMC10634346 (Cancer Research Communications, 2023).

Columns and labels:
[1] = tested on: MCL1 mRNA in SU-DHL-10 tumors; test: Pharmacodynamics in SU-DHL-10 xenograft tumors, MCL1 mRNA qPCR; assay type: in vivo, C.B-17 SCID mice; conditions: single dose; depletion sustained for 8 hours postdose at the two higher dose levels
Protocol: Total RNA was extracted from blood of patients and cell lines using RNeasy Plus Mini Kit (QIAGEN, #74136) and cDNA prepared with the Maxima First Strand cDNA Synthesis Kit for RT-PCR (Thermo Fisher Scientific, K1642) according to manufacturer's instructions. The integrity of purified total RNA was evaluated using an Agilent 2100 Bioanalyzer system and RNA 6000 Nano Kit (Agilent, #5067-1511). Differential gene expression analysis was performed (Fios Genomics) from RNA-seq data (Discovery Life Sciences). MYC and MCL1 mRNA levels were measured by qPCR in vitro and in vivo, using a Taqman qPCR system (Thermo Fisher Scientific), TaqMan Fast Universal PCR Master Mix (2X) no AmpErase (#4352042) and TaqMan probes for MYC (Hs00153408_m1) and MCL1 (Hs03043899_m1). RNA-seq data were analyzed using DESeq2 ([35]).
(§1) A total of 10 × 10^6 SU-DHL-10 cells were inoculated subcutaneously into 6–8 weeks old female C.B-17 SCID mice (Iffa Credo, Brussels). The mice were randomized to treatment groups at a tumor volume of 63–104 mm^3 and treated (intravenously, once weekly) with 10 mg/kg enitociclib (60% PEG400, 10% ethanol, water), 15 mg/kg enitociclib (30% PEG400, 10% ethanol, water), or corresponding vehicle treatments. Mice were around 10–12 weeks of age at the start of study. All animal experiments were performed under the national animal welfare laws of Germany and approved by the local authorities.

[2] = tested on: DH-DLBCL and other MYC+ NHL; conditions: 30 mg i.v. once weekly, phase I; cited from earlier work
[3] = tested on: Mcl-1 protein in SU-DHL-10 tumors; test: Pharmacodynamics in SU-DHL-10 xenograft tumors, Mcl-1 protein; assay type: in vivo, C.B-17 SCID mice; conditions: single dose; within 4 to 8 hours postdose
Protocol: (§2) The levels of p-Ser2, p-Ser5 and total RNA polymerase II, Myc, Mcl-1, cleaved PARP (cPARP), and cleaved Caspase 3 were assessed by Western blotting and quantified near-infrared detection and background corrected quantification of fluorescence intensity on an Odyssey Imaging System with IRDye secondary antibodies (LI-COR Biosciences). For quantification, the protein levels were normalized to GAPDH or HSP90, expressed as a ratio to DMSO or vehicle control at matched timepoints. The normalized relative protein levels of p-Ser2 were used for a treatment effect comparison by performing an ANOVA using PROC MIXED in SAS. The ANOVA model included treatment, timepoints and their interactions as fixed effects. The least square means (LSM), differences between the LSMs and associated P values were generated. The following primary antibodies were used: Rpb1 NTD (D8L4Y) rabbit antibody [Cell Signaling Technology (CST), #14958], anti-RNA polymerase II subunit B1 (phospho CTD Ser-2, clone 3E10) rat antibody (Merck, 04-1571-I), recombinant anti-c-MYC rabbit antibody (Y69; Abcam, #ab32072), MCL1 (D5V5L) rabbit antibody (CST, #39224), cleaved-PARP (Asp214) (E2T4K) mouse antibody (CST, #32563), HSP90 (C45G5) rabbit antibody (CST, #4877), and GAPDH mouse antibody (Zytomed Systems, #ZYT-RGM2-6C5). […]

[4] = tested on: MCL1 mRNA in SU-DHL-10 cells; test: In vitro washout, MCL1 mRNA qPCR, SU-DHL-10; assay type: cell-based, human; conditions: 4 h treatment then washout, for 16 to 48 hours after treatment
Protocol: (§3) Evaluation of the pharmacodynamic extent and duration of CDK9 inhibition were performed in vitro using the human DLBCL cell lines SU-DHL-4 and SU-DHL-10, harboring MYC amplification and MYC overexpression with P57T mutation, respectively. Cells were seeded 18 hours prior to treatment for 4 hours with one of three CDK9 inhibitors, enitociclib (0.25 and1 µmol/L), atuveciclib (1 µmol/L) or KB-0742 (1 µmol/L), cells were washed, and incubation continued until 48 hours posttreatment. Samples were collected before treatment (−4), immediately after treatment (0), and at 1, 2, 4, 8, 12, 16, 24, and 48 hours after washout for RNA sequencing (RNA-seq), qPCR, and Western blotting analyses. Total RNA was extracted from blood of patients and cell lines using RNeasy Plus Mini Kit (QIAGEN, #74136) and cDNA prepared with the Maxima First Strand cDNA Synthesis Kit for RT-PCR (Thermo Fisher Scientific, K1642) according to manufacturer's instructions. The integrity of purified total RNA was evaluated using an Agilent 2100 Bioanalyzer system and RNA 6000 Nano Kit (Agilent, #5067-1511). Differential gene expression analysis was performed (Fios Genomics) from RNA-seq data (Discovery Life Sciences). MYC and MCL1 mRNA levels were measured by qPCR in vitro and in vivo, using a Taqman qPCR system (Thermo Fisher Scientific), TaqMan Fast Universal PCR Master Mix (2X) no AmpErase (#4352042) and TaqMan probes for MYC (Hs00153408_m1) and MCL1 (Hs03043899_m1). RNA-seq data were analyzed using DESeq2 ([35]).

[5] = tested on: Myc protein in SU-DHL-10 tumors; test: Pharmacodynamics in SU-DHL-10 xenograft tumors, Myc protein; assay type: in vivo, C.B-17 SCID mice; conditions: single dose; within 4 to 8 hours postdose
Protocol: as §2

[6] = tested on: MYC and MCL1 mRNA in SU-DHL-4 cells; test: In vitro washout, MYC and MCL1 mRNA qPCR, SU-DHL-4; assay type: cell-based, human; conditions: 1 µmol/L, 4 h treatment then washout
Protocol: as §3, with “Differential gene expression analysis was performed (Fios Genomics) from RNA-seq data (Discovery Life Sciences).” left out

[7] = tested on: cleaved PARP in SU-DHL-10 tumors; test: Pharmacodynamics in SU-DHL-10 xenograft tumors, cleaved PARP; assay type: in vivo, C.B-17 SCID mice; conditions: single dose
Protocol: as §2

[8] = Body weight of treated xenograft mice; assay type: in vivo, C.B-17 SCID mice; conditions: 15 mg/kg i.v. once weekly
Protocol: as §1

[9] = tested on: p-Ser2 RNA polymerase II in SU-DHL-10 tumors; test: Pharmacodynamics in SU-DHL-10 xenograft tumors, p-Ser2; assay type: in vivo, C.B-17 SCID mice
Protocol: as §2

[10] = Fraction unbound in cell media; assay type: in vitro ADME
[11] = tested on: MYC mRNA in SU-DHL-10 cells; test: In vitro washout, MYC mRNA qPCR, SU-DHL-10; assay type: cell-based, human; conditions: 4 h treatment then washout, for 16 to 48 hours after treatment
Protocol: as §3

- fraction unbound [10]: 0.666
Structure (SMILES): COc1cc(F)ccc1-c1cc(Nc2cc(CS(C)(=N)=O)ccn2)ncc1F (stereo not drawn) [enitociclib]
- MCL1 mRNA levels in tumors (in words) [1]: reduced by 4 hours postdose
- complete metabolic remission (CR), patients with DH-DLBCL [2]: 2 of 7
- Mcl-1 protein levels in tumors (in words) [3]: robustly decreased
- inhibition of MCL1 mRNA levels [4]: approximately 75%
- reduction of Myc protein levels in tumors [5]: 50%
- MYC and MCL1 mRNA levels over the 48-hour time course (in words) [6]: durable depletion
- cleaved PARP in tumors (in words) [7]: increase in cleaved PARP
- maximum body weight change [8]: −12.5%
- decrease of p-Ser2 levels in tumors ([9]; single dose 5 mg/kg, for 8 hours): greater than 50%
- p-Ser2 in tumors (in words) ([9]; single dose 10 and 15 mg/kg, 8 hours postdose timeframe): depletion of p-Ser2
- inhibition of MYC mRNA levels [11]: approximately 75%
